Laboratory results taken from ChEMBL document CHEMBL4823300, “Design, synthesis and anticancer activity of sulfenylated imidazo-fused heterocycles” (Bioorg Med Chem Lett, 2021).
The source made the active and inactive calls. No cut-off for these calls is given here.

Experiments:
[1] = system: HepG2; experiment: Induction of apoptosis in human HepG2 cells assessed as live cells at 5 uM incubated for 48 hrs by annexin V-FITC/propidium iodide (AV/PI) dual staining assay (reference value: 91.01%); assay type: functional
[2] = system: HepG2; experiment: Cell cycle arrest in human HepG2 cells assessed as accumulation at G2/M phase at 10 uM (reference value: 3.72%); assay type: functional
[3] = system: HepG2; experiment: Induction of apoptosis in human HepG2 cells assessed as decrease in mitochondrial membrane potential at 5 to 10 uM incubated for 48 hrs by JC-1 staining based assay relative to control; assay type: functional, cell-based; conditions: dose 5-10 µM
[4] = system: HepG2; experiment: Induction of apoptosis in human HepG2 cells assessed as necrotic cells at 10 uM incubated for 48 hrs by annexin V-FITC/propidium iodide (AV/PI) dual staining assay (reference value: 1.06%); assay type: functional
[5] = system: HepG2; experiment: Cell cycle arrest in human HepG2 cells assessed as accumulation at G0/G1 phase at 5 uM (reference value: 92.33%); assay type: functional
[6] = system: HepG2; experiment: Induction of apoptosis in human HepG2 cells assessed as late apoptotic cells at 5 uM incubated for 48 hrs by annexin V-FITC/propidium iodide (AV/PI) dual staining assay (reference value: 4.07%); assay type: functional
[7] = system: HepG2; experiment: Cell cycle arrest in human HepG2 cells assessed as accumulation at SubG1 phase at 10 uM (reference value: 7.13%); assay type: functional
[8] = system: U-87 MG; experiment: Anticancer activity against human U-87 MG cells assessed as growth inhibition incubated for 48 hrs by MTT assay; assay type: functional, cell-based, U-87MG ATCC
[9] = system: HepG2; experiment: Induction of apoptosis in human HepG2 cells assessed as early apoptotic cells at 5 uM incubated for 48 hrs by annexin V-FITC/propidium iodide (AV/PI) dual staining assay (reference value: 3.87%); assay type: functional
[10] = system: NIH3T3; experiment: Anticancer activity against mouse NIH3T3 cells assessed as growth inhibition incubated for 48 hrs by MTT assay; assay type: cell-based; conditions: NIH3T3, 48 h
[11] = system: HepG2; experiment: Cell cycle arrest in human HepG2 cells assessed as accumulation at G0/G1 phase at 10 uM (reference value: 92.33%); assay type: functional
[12] = system: HepG2; experiment: Induction of apoptosis in human HepG2 cells assessed as early apoptotic cells at 10 uM incubated for 48 hrs by annexin V-FITC/propidium iodide (AV/PI) dual staining assay (reference value: 3.87%); assay type: functional
[13] = system: HepG2; experiment: Induction of apoptosis in human HepG2 cells assessed as necrotic cells at 5 uM incubated for 48 hrs by annexin V-FITC/propidium iodide (AV/PI) dual staining assay (reference value: 1.06%); assay type: functional
[14] = system: HepG2; experiment: Cell cycle arrest in human HepG2 cells assessed as accumulation at SubG1 phase at 5 uM (reference value: 7.13%); assay type: functional
[15] = system: HepG2; experiment: Cell cycle arrest in human HepG2 cells assessed as accumulation at S phase at 5 uM (reference value: 4.66%); assay type: functional
[16] = system: HEK293; experiment: Anticancer activity against human HEK293 cells assessed as growth inhibition incubated for 48 hrs by MTT assay; assay type: cell-based; conditions: HEK293, 48 h
[17] = system: HepG2; experiment: Induction of apoptosis in human HepG2 cells assessed as late apoptotic cells at 10 uM incubated for 48 hrs by annexin V-FITC/propidium iodide (AV/PI) dual staining assay (reference value: 4.07%); assay type: functional
[18] = system: MDA-MB-231; experiment: Anticancer activity against human MDA-MB-231 cells assessed as growth inhibition incubated for 48 hrs by MTT assay; assay type: functional, cell-based; conditions: MDA-MB-231, 48 h
[19] = system: HeLa; experiment: Anticancer activity against human HeLa cells assessed as growth inhibition incubated for 48 hrs by MTT assay; assay type: functional, cell-based
[20] = system: DU-145; experiment: Anticancer activity against human DU-145 cells assessed as growth inhibition incubated for 48 hrs by MTT assay; assay type: functional, cell-based; conditions: DU-145, 48 h
[21] = system: HepG2; experiment: Anticancer activity against human HepG2 cells assessed as growth inhibition incubated for 48 hrs by MTT assay; assay type: functional, cell-based; conditions: HepG2, 48 h
[22] = system: HepG2; experiment: Induction of apoptosis in human HepG2 cells assessed as live cells at 10 uM incubated for 48 hrs by annexin V-FITC/propidium iodide (AV/PI) dual staining assay (reference value: 91.01%); assay type: functional
[23] = system: SK-MEL-28; experiment: Anticancer activity against human SK-MEL-28 cells assessed as growth inhibition incubated for 48 hrs by MTT assay; assay type: functional, cell-based; conditions: SK-MEL-28, 48 h
[24] = system: A549; experiment: Anticancer activity against human A549 cells assessed as growth inhibition incubated for 48 hrs by MTT assay; assay type: functional, cell-based; conditions: A549, 48 h
[25] = system: HepG2; experiment: Induction of apoptosis in human HepG2 cells assessed as nuclear condensation at 5 to 10 uM incubated for 48 hrs by Hoechst staining based assay relative to control; assay type: functional, cell-based; conditions: dose 5-10 µM
[26] = system: HepG2; experiment: Cell cycle arrest in human HepG2 cells assessed as accumulation at S phase at 10 uM (reference value: 4.66%); assay type: functional
[27] = system: HepG2; experiment: Cell cycle arrest in human HepG2 cells assessed as accumulation at G2/M phase at 5 uM (reference value: 3.72%); assay type: functional

IC50 [8]: 59.2 µM
IC50 [18]: 25.3 µM
IC50 [19]: 35.5 µM
IC50 [20]: 22 µM
IC50 [21]: 8.8 µM
IC50 [23]: 65.4 µM
IC50 [24]: 16.3 µM
Structure (SMILES): C(=C\c1nc2ccccn2c1Sc1ccccc1)/c1ccccc1
Activity [1]: 72.25%
Activity [2]: 30.69%
Activity [3]: Active
Activity [4]: 0.2%
Activity [5]: 86.58%
Activity [6]: 11.31%
Activity [7]: 8.65%
Activity [9]: 16.1%
IC50 [10]: > 100 µM
Activity [11]: 65.4%
Activity [12]: 25.51%
Activity [13]: 0.34%
Activity [14]: 7.64%
Activity [15]: 0.52%
IC50 [16]: > 100 µM
Activity [17]: 22.5%
Activity [22]: 51.78%
Activity [25]: Active
Activity [26]: 0.69%
Activity [27]: 9.73%
